Laboratory results from PubChem BioAssay (NCI).
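1) Cells in 96-well plates. 2) Compound, 48 h, 5 concentrations. 3) Linear interpolation between surrounding doses. 4) Unreached endpoint = highest concentration. TGI: concentration producing complete growth inhibition.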

What was measured:
Assay in all cases: NCI anticancer screen, dose series, 48 h
[1] = test system: MALME-3M melanoma
[2] = test system: MOLT-4 leukemia
[3] = test system: KM12 colon
[4] = test system: NCI-H460 lung
[5] = test system: NCI-H522 lung
[6] = test system: SNB-19 CNS
[7] = test system: ACHN renal
[8] = test system: HL-60(TB) leukemia
[9] = test system: COLO 205 colon
[10] = test system: A549 NSCLC
[11] = test system: XF 498 CNS
[12] = test system: OVCAR-5 ovarian
[13] = test system: SNB-75 CNS
[14] = test system: HCC-2998 colon
[15] = test system: SK-MEL-28 melanoma
[16] = test system: DMS 114 small cell lung
[17] = test system: NCI-H226 lung
[18] = test system: HOP-18 NSCLC
[19] = test system: HCT-116 colon
[20] = test system: UACC-257 melanoma
[21] = test system: RXF 393 renal
[22] = test system: SK-MEL-5 melanoma
[23] = test system: OVCAR-4 ovarian
[24] = test system: HT29 colon
[25] = test system: SK-MEL-2 melanoma
[26] = test system: M14 melanoma
[27] = test system: HOP-62 NSCLC
[28] = test system: CAKI-1 renal
[29] = test system: DMS 273 small cell lung
[30] = test system: HOP-92 NSCLC
[31] = test system: SN12C renal
[32] = test system: SW-620 colon
[33] = test system: TK-10 renal
[34] = test system: U251 CNS
[35] = test system: NCI-H23 lung
[36] = test system: LXFL 529 NSCLC
[37] = test system: SF-268 CNS
[38] = test system: LOX IMVI melanoma
[39] = test system: SNB-78 CNS
[40] = test system: HCT-15 colon
[41] = test system: SR leukemia
[42] = test system: SK-OV-3 ovarian
[43] = test system: A498 renal
[44] = test system: SF-295 CNS
[45] = test system: RPMI-8226 leukemia
[46] = test system: CCRF-CEM leukemia
[47] = test system: DLD-1 colon
[48] = test system: UACC-62 melanoma
[49] = test system: IGROV1 ovarian
[50] = test system: EKVX NSCLC
[51] = test system: SF-539 CNS
[52] = test system: M19-MEL melanoma
[53] = test system: 786-0 renal
[54] = test system: OVCAR-3 ovarian
[55] = test system: KM20L2 colon
[56] = test system: UO-31 renal
[57] = test system: K-562 leukemia
[58] = test system: OVCAR-8 ovarian

O=C(NN1C(=O)CS(=O)(=O)C1c1ccc(C(F)(F)F)cc1)c1ccncc1 (stereo not drawn) showed a TGI [1] greater than 100 µM, a TGI [2] greater than 100 µM and a TGI [3] greater than 100 µM. The TGI [4] was greater than 100 µM, the TGI [5] was greater than 100 µM and the TGI [6] was greater than 100 µM. For the same compound, the TGI [7] was greater than 100 µM, the TGI [8] was greater than 100 µM and the TGI [9] was greater than 100 µM. The TGI [10] was greater than 100 µM, the TGI [11] was greater than 100 µM and the TGI [12] was greater than 100 µM. For the same compound, the TGI [13] was greater than 100 µM, the TGI [14] was greater than 100 µM and the TGI [15] was greater than 100 µM. For the same compound, the TGI [16] was greater than 100 µM, the TGI [17] was greater than 100 µM and the TGI [18] was greater than 100 µM. It also gave a TGI [19] greater than 100 µM, a TGI [20] greater than 100 µM and a TGI [21] greater than 100 µM. It also gave a TGI [22] greater than 100 µM, a TGI [23] greater than 100 µM and a TGI [24] greater than 100 µM. It also gave a TGI [25] greater than 100 µM, a TGI [26] greater than 100 µM and a TGI [27] greater than 100 µM. For the same compound, the TGI [28] was greater than 100 µM, the TGI [29] was greater than 100 µM and the TGI [30] was greater than 100 µM. It also gave a TGI [31] greater than 100 µM, a TGI [32] greater than 100 µM and a TGI [33] greater than 100 µM. For the same compound, the TGI [34] was greater than 100 µM, the TGI [35] was greater than 100 µM and the TGI [36] was greater than 100 µM. For the same compound, the TGI [37] was greater than 100 µM, the TGI [38] was greater than 100 µM and the TGI [39] was greater than 100 µM. For the same compound, the TGI [40] was greater than 100 µM, the TGI [41] was greater than 100 µM and the TGI [42] was greater than 100 µM. It also gave a TGI [43] greater than 100 µM, a TGI [44] greater than 100 µM and a TGI [45] greater than 100 µM. For the same compound, the TGI [46] was greater than 100 µM and the TGI [47] was greater than 100 µM.

With CN1Nc2ccccc2CC1=O the TGI [1] was greater than 100 µM, the TGI [3] was greater than 100 µM and the TGI [48] was greater than 100 µM. It also gave a TGI [4] greater than 100 µM, a TGI [49] greater than 100 µM and a TGI [6] greater than 100 µM. The TGI [7] was greater than 100 µM, the TGI [50] was greater than 100 µM and the TGI [9] was greater than 100 µM. For the same compound, the TGI [10] was greater than 100 µM, the TGI [11] was greater than 100 µM and the TGI [12] was greater than 100 µM. It also gave a TGI [13] greater than 100 µM, a TGI [14] greater than 100 µM and a TGI [51] greater than 100 µM. It also gave a TGI [52] greater than 100 µM, a TGI [15] greater than 100 µM and a TGI [53] greater than 100 µM. It also gave a TGI [16] greater than 100 µM, a TGI [17] greater than 100 µM and a TGI [18] greater than 100 µM. It also gave a TGI [54] greater than 100 µM, a TGI [19] greater than 100 µM and a TGI [20] greater than 100 µM. For the same compound, the TGI [55] was greater than 100 µM, the TGI [22] was greater than 100 µM and the TGI [23] was greater than 100 µM. For the same compound, the TGI [24] was greater than 100 µM, the TGI [25] was greater than 100 µM and the TGI [26] was greater than 100 µM. It also gave a TGI [27] greater than 100 µM, a TGI [28] greater than 100 µM and a TGI [29] greater than 100 µM. It also gave a TGI [56] greater than 100 µM, a TGI [30] greater than 100 µM and a TGI [31] greater than 100 µM. It also gave a TGI [32] greater than 100 µM, a TGI [33] greater than 100 µM and a TGI [34] greater than 100 µM. The TGI [35] was greater than 100 µM, the TGI [57] was greater than 100 µM and the TGI [37] was greater than 100 µM. The TGI [38] was greater than 100 µM, the TGI [39] was greater than 100 µM and the TGI [58] was greater than 100 µM. It also gave a TGI [40] greater than 100 µM, a TGI [42] greater than 100 µM and a TGI [43] greater than 100 µM. It also gave a TGI [44] greater than 100 µM, a TGI [45] greater than 100 µM and a TGI [46] greater than 100 µM. For the same compound, the TGI [47] was greater than 100 µM.

With O=S(=O)(OI(OI(OS(=O)(=O)C(F)(F)F)c1ccccc1)c1ccccc1)C(F)(F)F the TGI [1] was greater than 100 µM, the TGI [2] was greater than 100 µM and the TGI [3] was greater than 100 µM. It also gave a TGI [48] greater than 100 µM, a TGI [4] greater than 100 µM and a TGI [5] greater than 100 µM. It also gave a TGI [49] greater than 100 µM, a TGI [6] greater than 100 µM and a TGI [7] greater than 100 µM. The TGI [50] was greater than 100 µM, the TGI [8] was 36.5 µM and the TGI [9] was greater than 100 µM. For the same compound, the TGI [10] was greater than 100 µM, the TGI [12] was greater than 100 µM and the TGI [13] was greater than 100 µM. The TGI [14] was greater than 100 µM, the TGI [51] was greater than 100 µM and the TGI [52] was greater than 100 µM. For the same compound, the TGI [53] was greater than 100 µM, the TGI [16] was 55 µM and the TGI [17] was greater than 100 µM. For the same compound, the TGI [54] was greater than 100 µM, the TGI [19] was greater than 100 µM and the TGI [21] was 73.7 µM. For the same compound, the TGI [55] was greater than 100 µM, the TGI [22] was 85.4 µM and the TGI [25] was greater than 100 µM. The TGI [26] was greater than 100 µM, the TGI [27] was greater than 100 µM and the TGI [28] was greater than 100 µM. It also gave a TGI [29] greater than 100 µM, a TGI [56] greater than 100 µM and a TGI [31] greater than 100 µM. The TGI [32] was greater than 100 µM, the TGI [33] was greater than 100 µM and the TGI [34] was greater than 100 µM. For the same compound, the TGI [57] was greater than 100 µM, the TGI [36] was greater than 100 µM and the TGI [37] was greater than 100 µM. It also gave a TGI [38] greater than 100 µM, a TGI [39] greater than 100 µM and a TGI [58] greater than 100 µM. The TGI [40] was greater than 100 µM, the TGI [43] was greater than 100 µM and the TGI [44] was greater than 100 µM. For the same compound, the TGI [45] was greater than 100 µM, the TGI [46] was 91.1 µM and the TGI [47] was greater than 100 µM.

CCCC(=O)OC[n+]1ccc2c(C)c3[nH]c4ccccc4c3c(C)c2c1 was tested, and the TGI [2] was 3.04 µM, the TGI [3] was 1.8 µM and the TGI [8] was greater than 100 µM. It also gave a TGI [12] of 2.34 µM, a TGI [13] greater than 100 µM and a TGI [52] greater than 100 µM. It also gave a TGI [18] of 2.99 µM, a TGI [24] greater than 100 µM and a TGI [56] of 5.59 µM. For the same compound, the TGI [33] was 5.5 µM, the TGI [57] was greater than 100 µM and the TGI [41] was 17.5 µM. The TGI [46] was greater than 100 µM.

In the case of [N-]=[N+]=NC1(c2ccccc2)C(=O)c2cccc3c2N(CCC3)C1=O (stereo not drawn), the TGI [2] is reported as greater than 100 µM, the TGI [3] is reported as greater than 100 µM and the TGI [48] is reported as greater than 100 µM. For the same compound, the TGI [4] was greater than 100 µM, the TGI [5] was greater than 100 µM and the TGI [49] was greater than 100 µM. The TGI [6] was greater than 100 µM, the TGI [7] was greater than 100 µM and the TGI [8] was 64.5 µM. It also gave a TGI [9] greater than 100 µM, a TGI [12] greater than 100 µM and a TGI [13] greater than 100 µM. For the same compound, the TGI [52] was greater than 100 µM, the TGI [15] was greater than 100 µM and the TGI [53] was greater than 100 µM. The TGI [16] was greater than 100 µM, the TGI [54] was greater than 100 µM and the TGI [20] was 82.7 µM. It also gave a TGI [21] greater than 100 µM, a TGI [55] greater than 100 µM and a TGI [23] greater than 100 µM. For the same compound, the TGI [24] was greater than 100 µM, the TGI [25] was greater than 100 µM and the TGI [26] was greater than 100 µM. For the same compound, the TGI [27] was greater than 100 µM, the TGI [56] was 74.3 µM and the TGI [30] was greater than 100 µM. The TGI [34] was greater than 100 µM, the TGI [35] was greater than 100 µM and the TGI [57] was 89.4 µM. It also gave a TGI [36] greater than 100 µM, a TGI [37] greater than 100 µM and a TGI [39] greater than 100 µM. For the same compound, the TGI [41] was greater than 100 µM, the TGI [42] was greater than 100 µM and the TGI [43] was greater than 100 µM. For the same compound, the TGI [44] was greater than 100 µM and the TGI [45] was greater than 100 µM.
